Where only a bound is given, the exact number is not on record here.

The target in the first experiment is ALK2 (aa 147-end) (Homo sapiens (Human), UniProt Q04771). Description: ALK2 HTRF Assay. The format is biochemical.
Sequence of ALK2 (aa 147-end) (Q04771 147-509): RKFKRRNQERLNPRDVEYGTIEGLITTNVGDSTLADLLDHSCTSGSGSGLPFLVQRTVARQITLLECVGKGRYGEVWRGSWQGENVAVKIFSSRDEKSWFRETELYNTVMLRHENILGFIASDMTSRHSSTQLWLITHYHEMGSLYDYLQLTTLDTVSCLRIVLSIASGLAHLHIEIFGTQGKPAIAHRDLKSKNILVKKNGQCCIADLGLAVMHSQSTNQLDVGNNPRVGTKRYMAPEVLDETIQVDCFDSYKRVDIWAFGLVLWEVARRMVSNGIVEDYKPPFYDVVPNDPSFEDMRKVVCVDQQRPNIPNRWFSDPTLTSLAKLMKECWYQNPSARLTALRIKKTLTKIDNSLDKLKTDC
Details: not given
The method, then: The enzymatic assays were conducted in white 384-well polystyrene plates in a final volume of 8 μL. The inhibitors were serially diluted in DMSO and added to the plate wells prior to addition of the other reaction components. The assays were carried out at 25° C. in the assay buffer (50 mM HEPES, pH 7.0, 10% Glycerol, 0.01% Brij50, 10 mM MgCl2, 1 mM EGTA, 5 mM DTT, and 0.01% BSA), containing 50 nM LANCE Ultra ULight™-DNA Topoisomerase 2-alpha peptide (Perkin Elmer TRF0130), and 3 μM ATP. The final concentration of DMSO in the assay was 1% and the enzyme concentration was 0.5 nM for ALK2. […] […] IC50 determination was performed by fitting percent control activity versus the log of the inhibitor concentration using the IDBS XLFit and GraphPad Prism 5.0 software.
(In TR-FRET formats the signal depends on donor and acceptor labels being close together.)
Broadly, the IC50 is the concentration needed to halve the response being measured. `COCc1nn2c(-c3ccnc4ccccc34)cnc2cc1-c1ccc(N2CCNCC2)cc1` [Example 8, 4-(6-(Methoxymethyl)-7-(4-(piperazin-1-yl)phenyl)imidazo[1,2-b]pyridazin-3-yl)quinoline]: the half-maximal inhibitory concentration (IC50) fell in the range of 1 to 5 nM.

The same experiment, now with this note: 3 μM ATP, 0.5 nM ALK2, 2 hr, 25° C.; read-out: ALK2 IC50.
Take `N#Cc1nn2c(-c3ccnc4ccccc34)cnc2cc1-c1ccc(N2CCNCC2)cc1` [Example 6, 7-(4-(piperazin-1-yl)phenyl)-3-(quinolin-4-yl)imidazo[1,2-b]pyridazine-6-carbonitrile]: the half-inhibitory concentration (IC50) is < 1 nM. Take `Cc1nn2c(-c3ccnc4cc(-c5ccncc5)ccc34)cnc2cc1-c1cnn([C@H]2CC[C@H](O)CC2)c1` [Example 10, (trans)-4-(4-(6-Methyl-3-(7-(pyridin-4-yl)quinolin-4-yl)imidazo[1,2-b]pyridazin-7-yl)-1H-pyrazol-1-yl)cyclohexan-1-ol]: the half-inhibitory concentration (IC50) was in the range of 1 to 5 nM. On the same count and under the same terms, then `Cc1nn2c(-c3ccnc4cc(-c5ccn(C)n5)ccc34)cnc2cc1-c1ccc(N2CCNCC2)cc1` [Example 18, 7-(1-methyl-1H-pyrazol-3-yl)-4-(6-methyl-7-(4-(piperazin-1-yl)phenyl)imidazo[1,2-b]pyridazin-3-yl)quinoline], with 1 to 5 nM. Same read-out and setting: the value for `Cc1cc(-c2ccc3c(-c4cnc5cc(-c6ccc(CN7CCOCC7)cc6)c(C)nn45)ccnc3n2)n[nH]1` [Example 49, 4-(4-(6-methyl-3-(7-(5-methyl-1H-pyrazol-3-yl)-1,8-naphthyridin-4-yl)imidazo[1,2-b]pyridazin-7-yl)benzyl)morpholine] was < 1 nM; that for `CCOC(=O)N1CCN(C(=O)c2nn3c(-c4ccnc5ccccc45)cnc3cc2-c2ccc(N3CCNCC3)cc2)CC1` [Example 4, Ethyl 4-(7-(4-(piperazin-1-yl)phenyl)-3-(quinolin-4-yl)imidazo[1,2-b]pyridazine-6-carbonyl)piperazine-1-carboxylate] was 5 to 100 nM; that for `Cc1nn2c(-c3ccnc4cc(C(O)c5cc(F)cc(F)c5)ccc34)cnc2cc1-c1ccc(N2CCNCC2)cc1` (centres unmarked) [Example 25, (3,5-difluorophenyl)(4-(6-methyl-7-(4-(piperazin-1-yl)phenyl)imidazo[1,2-b]pyridazin-3-yl)quinolin-7-yl)methanol] was 1 to 5 nM. On the same count and under the same terms, the value for `Cc1nn2c(-c3ccnc4nc(-c5ccccn5)ccc34)cnc2cc1-c1ccc(CN2CCC2)cc1` [Example 38, 5-(7-(4-(Azetidin-1-ylmethyl)phenyl)-6-methylimidazo[1,2-b]pyridazin-3-yl)-2-(pyridin-2-yl)-1,8-naphthyridine] was < 1 nM.

Take `CCn1cnc(-c2ccc3c(-c4cnc5cc(-c6ccc(CN7CC(F)(F)C7)cc6)c(C)nn45)ccnc3n2)c1` [Example 57]: the IC50 lay within 1 to 5 nM. On the same count and under the same terms, then `Cc1nn2c(-c3ccnc4nc(-c5ncccn5)ccc34)cnc2cc1-c1cnn(C(C)C)c1` [Example 40, 5-(7-(1-Isopropyl-1H-pyrazol-4-yl)-6-methylimidazo[1,2-b]pyridazin-3-yl)-2-(pyrimidin-2-yl)-1,8-naphthyridine], with < 1 nM; and `CCn1cnc(-c2ccc3c(-c4cnc5cc(-c6ccc(CN7CCOCC7)cc6)c(C)nn45)ccnc3n2)c1` [Example 53, 4-(4-(3-(7-(1-Ethyl-1H-imidazol-4-yl)-1,8-naphthyridin-4-yl)-6-methylimidazo[1,2-b]pyridazin-7-yl)benzyl)morpholine], with 1 to 5 nM. Still for that read-out and setting: the value for `COC(=O)c1nn2c(-c3ccnc4ccccc34)cnc2cc1-c1ccc(N2CCNCC2)cc1` [Example 2, Methyl 7-(4-(piperazin-1-yl)phenyl)-3-(quinolin-4-yl)imidazo[1,2-b]pyridazine-6-carboxylate] was < 1 nM; that for `Cc1nn2c(-c3ccnc4cc(N5CCN6C(=O)CCC6C5)ccc34)cnc2cc1-c1cnn([C@H]2CC[C@H](O)CC2)c1` (stereo partly drawn) [Example 34, 2-(4-(7-(1-((1R,4R)-4-hydroxycyclohexyl)-1H-pyrazol-4-yl)-6-methylimidazo[1,2-b]pyridazin-3-yl)quinolin-7-yl)hexahydropyrrolo[1,2-a]pyrazin-6(2H)-one] was 5 to 100 nM. Same read-out and setting: the value for `CCn1cnc(-c2ccc3c(-c4cnc5cc(-c6ccc(CN7CCC(C)(O)CC7)cc6)c(C)nn45)ccnc3n2)c1` [Example 72, 1-(4-(3-(7-(1-Ethyl-1H-imidazol-4-yl)-1,8-naphthyridin-4-yl)-6-methylimidazo[1,2-b]pyridazin-7-yl)benzyl)-4-methylpiperidin-4-ol] was < 1 nM; that for `Cc1cnn(-c2ccc3c(-c4cnc5cc(-c6ccc(CN(C)C)cc6)c(C)nn45)ccnc3n2)n1` [Example 65, N,N-dimethyl-1-(4-(6-methyl-3-(7-(4-methyl-2H-1,2,3-triazol-2-yl)-1,8-naphthyridin-4-yl)imidazo[1,2-b]pyridazin-7-yl)phenyl)methanamine] was 1 to 5 nM. Turning to `CCn1cnc(-c2ccc3c(-c4cnc5cc(-c6ccc(CN(C)C)cc6)c(C)nn45)ccnc3n2)c1` [Example 54, 1-(4-(3-(7-(1-Ethyl-1H-imidazol-4-yl)-1,8-naphthyridin-4-yl)-6-methylimidazo[1,2-b]pyridazin-7-yl)phenyl)-N,N-dimethylmethanamine], the concentration for half-maximal inhibition (IC50) was < 1 nM. Same read-out and setting: the value for `Cc1cc(-c2ccc3c(-c4cnc5cc(-c6ccc(CN7CCC7)cc6)c(C)nn45)ccnc3n2)n[nH]1` [Example 48, 5-(7-(4-(Azetidin-1-ylmethyl)phenyl)-6-methylimidazo[1,2-b]pyridazin-3-yl)-2-(5-methyl-1H-pyrazol-3-yl)-1,8-naphthyridine] was < 1 nM; that for `Cc1cnn(-c2ccc3c(-c4cnc5cc(-c6ccc(CN7CC[C@](C)(O)C7)cc6)c(C)nn45)ccnc3n2)n1` [Example 66, (S)-3-methyl-1-(4-(6-methyl-3-(7-(4-methyl-2H-1,2,3-triazol-2-yl)-1,8-naphthyridin-4-yl)imidazo[1,2-b]pyridazin-7-yl)benzyl)pyrrolidin-3-ol] was < 1 nM. Still for that read-out and setting: the value for `CCn1cnc(-c2ccc3c(-c4cnc5cc(-c6ccc(CN7CCC7)cc6)c(C)nn45)ccnc3n2)c1` [Example 56, 5-(7-(4-(Azetidin-1-ylmethyl)phenyl)-6-methylimidazo[1,2-b]pyridazin-3-yl)-2-(1-ethyl-1H-imidazol-4-yl)-1,8-naphthyridine] was 1 to 5 nM. Still for that read-out and setting: the value for `Cc1nn2c(-c3ccnc4nc(-c5cnccn5)ccc34)cnc2cc1-c1ccc(CN2CCC2)cc1` [Example 42, 5-(7-(4-(Azetidin-1-ylmethyl)phenyl)-6-methylimidazo[1,2-b]pyridazin-3-yl)-2-(pyrazin-2-yl)-1,8-naphthyridine] was 1 to 5 nM; that for `CC(=O)N1C[C@@H]2C[C@H]1CN2c1ccc2c(-c3cnc4cc(-c5cnn([C@H]6CC[C@H](O)CC6)c5)c(C)nn34)ccnc2c1` [Example 33, 1-((1S,4S)-5-(4-(7-(1-((1R,4R)-4-hydroxycyclohexyl)-1H-pyrazol-4-yl)-6-methylimidazo[1,2-b]pyridazin-3-yl)quinolin-7-yl)-2,5-diazabicyclo[2.2.1]heptan-2-yl)ethan-1-one] was 5 to 100 nM.

`Cc1cnn(-c2ccc3c(-c4cnc5cc(-c6ccc(CN7CCC(C)(O)CC7)cc6)c(C)nn45)ccnc3n2)n1` [Example 68, 4-methyl-1-(4-(6-methyl-3-(7-(4-methyl-2H-1,2,3-triazol-2-yl)-1,8-naphthyridin-4-yl)imidazo[1,2-b]pyridazin-7-yl)benzyl)piperidin-4-ol]: the concentration for half-maximal inhibition (IC50) was < 1 nM. Same read-out and setting: then `CCn1cc(-c2cc3ncc(-c4ccnc5nc(-c6ccccn6)ccc45)n3nc2C)cn1` [Example 39, 5-(7-(1-Ethyl-1H-pyrazol-4-yl)-6-methylimidazo[1,2-b]pyridazin-3-yl)-2-(pyridin-2-yl)-1,8-naphthyridine], with 1 to 5 nM; and `Cc1nn2c(-c3ccnc4cc(-c5ccncc5)ccc34)cnc2cc1-c1ccc(N2CCN(CCO)CC2)cc1` [Example 11, 2-(4-(4-(6-Methyl-3-(7-(pyridin-4-yl)quinolin-4-yl)imidazo[1,2-b]pyridazin-7-yl)phenyl)piperazin-1-yl)ethan-1-ol], with < 1 nM; and `Cc1cnn(-c2ccc3c(-c4cnc5cc(-c6ccc(CN7CCN(C)CC7)cc6)c(C)nn45)ccnc3n2)n1` [Example 70, 2-(4-methyl-2H-1,2,3-triazol-2-yl)-5-(6-methyl-7-(4-((4-methylpiperazin-1-yl)methyl)phenyl)imidazo[1,2-b]pyridazin-3-yl)-1,8-naphthyridine], with 1 to 5 nM. As to `Cc1nn2c(-c3ccnc4nc(-c5ccn(C)n5)ccc34)cnc2cc1-c1ccc(CN2CCC2)cc1` [Example 46, 5-(7-(4-(Azetidin-1-ylmethyl)phenyl)-6-methylimidazo[1,2-b]pyridazin-3-yl)-2-(1-methyl-1H-pyrazol-3-yl)-1,8-naphthyridine], the IC50 was in the range of 5 to 100 nM. The same measure, in the same setting: then `Cc1cnn(-c2ccc3c(-c4cnc5cc(-c6ccc(CN7CC(C)(O)C7)cc6)c(C)nn45)ccnc3n2)n1` [Example 69, 3-methyl-1-(4-(6-methyl-3-(7-(4-methyl-2H-1,2,3-triazol-2-yl)-1,8-naphthyridin-4-yl)imidazo[1,2-b]pyridazin-7-yl)benzyl)azetidin-3-ol], with 1 to 5 nM; and `Cc1cc(-c2ccc3c(-c4cnc5cc(-c6cnn(C(C)C)c6)c(C)nn45)ccnc3n2)n[nH]1` [Example 50, 5-(7-(1-Isopropyl-1H-pyrazol-4-yl)-6-methylimidazo[1,2-b]pyridazin-3-yl)-2-(5-methyl-1H-pyrazol-3-yl)-1,8-naphthyridine], with < 1 nM; and `Cc1nn2c(-c3ccnc4nc(-c5ccn(C)n5)ccc34)cnc2cc1-c1cnn(C(C)C)c1` [Example 45, 5-(7-(1-Isopropyl-1H-pyrazol-4-yl)-6-methylimidazo[1,2-b]pyridazin-3-yl)-2-(1-methyl-1H-pyrazol-3-yl)-1,8-naphthyridine], with 1 to 5 nM.
